Reference: ChEMBL document CHEMBL4049386, “Discovery of an Inhibitor of the Proteasome Subunit Rpn11” (J Med Chem, 2017)
pIC50: −log10 of the molar value. Calls of active or inactive are those of the source. The calls are words filed in the database; no cut-off is given here.

System: HCT-116
Test: cells
Settings: Homo sapiens, HCT-116, 72 h
Description: Antiproliferative activity against human HCT116 cells after 72 hrs by Cell Titer-Glo assay

| pIC50 | Compound |
| --- | --- |
| 5.47 | Cc1ccc(S)c2ncccc12 |
| < 5.00 | Cc1ccnc2c(S)cccc12 |
| 5.59 | Cc1cnc2c(S)cccc2c1 |
| 5.80 | Sc1cccc2cccnc12 |

Target: 72 kDa type IV collagenase (Homo sapiens, UniProt P08253)
Test: Inhibition of recombinant human MMP2 catalytic domain (Tyr110 to Asp452 residues) expressed in yeast using Mca-Pro-Leu-Gly-Leu-Dpa-Ala-Arg-NH2.AcOH as substrate preincubated for 30 mins followed by substrate addition measured every minute for 20 mins by fluorescence assay
Settings: not given

72 kDa type IV collagenase, sequence (P08253 whole entry, the tested form may be a part): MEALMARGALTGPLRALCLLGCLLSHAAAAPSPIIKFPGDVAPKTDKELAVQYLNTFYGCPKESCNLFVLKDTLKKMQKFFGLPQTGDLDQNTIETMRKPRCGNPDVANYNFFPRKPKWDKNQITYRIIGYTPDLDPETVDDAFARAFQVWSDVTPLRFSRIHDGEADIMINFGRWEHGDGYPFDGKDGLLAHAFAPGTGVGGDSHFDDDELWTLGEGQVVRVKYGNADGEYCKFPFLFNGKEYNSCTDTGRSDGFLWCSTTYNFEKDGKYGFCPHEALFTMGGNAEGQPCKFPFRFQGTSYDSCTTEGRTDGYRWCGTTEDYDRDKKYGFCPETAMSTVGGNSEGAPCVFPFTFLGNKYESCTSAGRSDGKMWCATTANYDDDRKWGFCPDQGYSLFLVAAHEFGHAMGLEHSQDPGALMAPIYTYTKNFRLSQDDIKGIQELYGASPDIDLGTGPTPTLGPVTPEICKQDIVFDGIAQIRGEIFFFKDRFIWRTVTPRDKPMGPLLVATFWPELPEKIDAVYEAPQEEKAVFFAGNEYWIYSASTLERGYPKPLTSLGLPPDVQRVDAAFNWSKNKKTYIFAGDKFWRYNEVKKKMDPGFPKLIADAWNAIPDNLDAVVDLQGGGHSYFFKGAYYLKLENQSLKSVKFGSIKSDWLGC

| pIC50 | Compound |
| --- | --- |
| < 3.70 | Cc1ccc(S)c2ncccc12 |
| < 3.70 | Cc1ccnc2c(S)cccc12 |
| < 3.70 | Cc1cnc2c(S)cccc2c1 |
| < 3.70 | Sc1cccc2cccnc12 |
| < 3.70 | Cc1cc(S)c2ncccc2c1 |

Target: T1, 26S proteasome non-ATPase regulatory subunit 14 (Homo sapiens, UniProt O00487)
Test: not given
Settings: 200 uM

T1 sequence (O00487 whole entry): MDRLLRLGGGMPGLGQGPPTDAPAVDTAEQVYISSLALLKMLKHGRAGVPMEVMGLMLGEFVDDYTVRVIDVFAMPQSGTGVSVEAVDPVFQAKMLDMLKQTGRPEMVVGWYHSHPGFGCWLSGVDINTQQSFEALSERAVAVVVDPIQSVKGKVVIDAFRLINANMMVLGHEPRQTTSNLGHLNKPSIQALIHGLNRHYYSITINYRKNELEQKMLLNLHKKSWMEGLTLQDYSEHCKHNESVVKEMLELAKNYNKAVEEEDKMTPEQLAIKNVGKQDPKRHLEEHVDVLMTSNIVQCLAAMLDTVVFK

| inhibition | Compound |
| --- | --- |
| 100% | Sc1cccc2cccnc12 |

System: HEK-293T
Test: Antiproliferative activity against human 293T cells after 72 hrs by Cell Titer-Glo assay
Type: functional, cell-based
Settings: not given

| Compound | pIC50 |
| --- | --- |
| O=C(NCCc1nccs1)c1cnc2c(SSc3cccc4cc(C(=O)NCCc5nccs5)cnc34)cccc2c1 | 5.68 |
| O=C(Nc1nccs1)c1cnc2c(SSc3cccc4cc(C(=O)Nc5nccs5)cnc34)cccc2c1 | 5.19 |
| CC(C)C[C@H](NC(=O)[C@H](Cc1ccccc1)NC(=O)c1cnccn1)B(O)O [BORTEZOMIB] | 7.92 |

Target: T2, STAM-binding protein (Homo sapiens, UniProt O95630)
T2 sequence (O95630 whole entry): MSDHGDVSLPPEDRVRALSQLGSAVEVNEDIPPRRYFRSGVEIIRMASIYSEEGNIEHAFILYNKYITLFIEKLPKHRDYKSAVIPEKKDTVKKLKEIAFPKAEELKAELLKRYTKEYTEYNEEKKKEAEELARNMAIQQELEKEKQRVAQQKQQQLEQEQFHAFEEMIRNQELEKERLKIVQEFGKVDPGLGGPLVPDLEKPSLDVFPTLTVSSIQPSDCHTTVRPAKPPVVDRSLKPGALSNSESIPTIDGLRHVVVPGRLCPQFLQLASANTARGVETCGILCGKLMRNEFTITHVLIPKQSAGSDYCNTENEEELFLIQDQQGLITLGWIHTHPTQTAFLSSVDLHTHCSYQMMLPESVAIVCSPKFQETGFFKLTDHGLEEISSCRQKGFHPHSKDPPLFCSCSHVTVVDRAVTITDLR
Test: Inhibition of AMSH (unknown origin) using DiUbK63TAMRA as substrate by fluorescence assay
Settings: not given

| pIC50 | Compound |
| --- | --- |
| 5.33 | O=C(Nc1nccs1)c1cnc2c(SSc3cccc4cc(C(=O)Nc5nccs5)cnc34)cccc2c1 |

Target: T3, Polyunsaturated fatty acid 5-lipoxygenase (Homo sapiens, UniProt P09917)
T3 sequence (P09917 whole entry): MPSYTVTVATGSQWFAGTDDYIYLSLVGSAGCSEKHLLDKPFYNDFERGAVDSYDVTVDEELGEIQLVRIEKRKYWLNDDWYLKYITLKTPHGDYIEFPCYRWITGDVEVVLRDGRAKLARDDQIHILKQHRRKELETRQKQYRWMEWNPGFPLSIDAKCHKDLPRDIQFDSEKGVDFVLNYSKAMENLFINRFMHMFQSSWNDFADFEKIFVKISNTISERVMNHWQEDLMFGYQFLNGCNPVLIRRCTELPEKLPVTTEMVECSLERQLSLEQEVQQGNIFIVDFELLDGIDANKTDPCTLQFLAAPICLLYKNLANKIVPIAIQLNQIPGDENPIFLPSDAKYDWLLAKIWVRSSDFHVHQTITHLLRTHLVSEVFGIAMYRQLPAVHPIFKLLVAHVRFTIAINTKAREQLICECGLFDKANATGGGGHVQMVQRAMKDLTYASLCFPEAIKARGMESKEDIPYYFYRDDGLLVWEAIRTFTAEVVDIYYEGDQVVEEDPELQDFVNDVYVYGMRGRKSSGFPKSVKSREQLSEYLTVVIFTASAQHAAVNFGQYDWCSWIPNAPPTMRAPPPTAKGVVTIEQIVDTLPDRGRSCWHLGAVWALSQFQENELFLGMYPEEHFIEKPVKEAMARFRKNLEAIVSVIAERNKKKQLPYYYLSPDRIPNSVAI
Test: Inhibition of recombinant human 5-LO expressed in baculovirus infected sf9 cells using arachidonic acid as substrate preincubated for 10 mins followed by substrate addition measured every minute for 20 mins by H2DCFDA dye based fluorescence assay
Settings: not given

| pIC50 | Compound |
| --- | --- |
| < 3.70 | Cc1ccc(S)c2ncccc12 |
| < 3.70 | Cc1ccnc2c(S)cccc12 |
| < 3.70 | Cc1cnc2c(S)cccc2c1 |
| < 3.70 | Sc1cccc2cccnc12 |
| < 3.70 | Cc1cc(S)c2ncccc2c1 |

Target: T1, 26S proteasome non-ATPase regulatory subunit 14
Test: Inhibition of 26S proteasome regulatory subunit RPN11 deubiquitinating activity in human erythrocytes using Ub4-pepOG protein substrate preincubated for 1 hr followed by substrate addition measured after 80 mins by fluorescence polarization assay
Settings: not given

| pIC50 | Compound |
| --- | --- |
| 5.60 | Cc1ccc(S)c2ncccc12 |
| 5.24 | Cc1ccnc2c(S)cccc12 |
| 5.80 | Cc1cnc2c(S)cccc2c1 |
| 5.55 to 5.60 | Sc1cccc2cccnc12 |
| 6.05 | Cc1cc(S)c2ncccc2c1 |

System: not listed separately
Test: Aqueous solubility of the compound
Type: physicochemical
Settings: buffer

| solubility | Compound |
| --- | --- |
| Soluble | O=C(NCCc1nccs1)c1cnc2c(SSc3cccc4cc(C(=O)NCCc5nccs5)cnc34)cccc2c1 |
| Soluble | O=C(Nc1nccs1)c1cnc2c(SSc3cccc4cc(C(=O)Nc5nccs5)cnc34)cccc2c1 |

Target: Carbonic anhydrase 2 (Homo sapiens, UniProt P00918)
Test: Inhibition of human carbonic anhydrase-2 using p-nitrophenylacetate as substrate preincubated for 10 mins followed by substrate addition
Settings: not given

| pIC50 | Compound |
| --- | --- |
| < 3.70 | Cc1ccc(S)c2ncccc12 |
| < 3.70 | Cc1ccnc2c(S)cccc12 |
| < 4.40 | Cc1cnc2c(S)cccc2c1 |
| < 3.70 | Sc1cccc2cccnc12 |
| < 4.00 | Cc1cc(S)c2ncccc2c1 |

Target: Lys-63-specific deubiquitinase BRCC36 (Homo sapiens) (UniProt P46736)
Test: Inhibition of BRCC36 (unknown origin) using DiUbK63TAMRA as substrate by fluorescence assay
Settings: not given

Lys-63-specific deubiquitinase BRCC36 (Homo sapiens), sequence (P46736 whole entry): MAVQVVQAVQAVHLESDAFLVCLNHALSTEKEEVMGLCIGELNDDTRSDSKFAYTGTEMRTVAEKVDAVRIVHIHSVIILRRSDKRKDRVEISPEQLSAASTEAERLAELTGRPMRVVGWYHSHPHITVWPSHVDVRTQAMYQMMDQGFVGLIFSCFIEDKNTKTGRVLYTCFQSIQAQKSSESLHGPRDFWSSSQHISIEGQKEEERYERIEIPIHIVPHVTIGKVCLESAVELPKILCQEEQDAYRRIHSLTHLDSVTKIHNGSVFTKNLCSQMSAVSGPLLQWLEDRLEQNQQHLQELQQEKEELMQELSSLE

| inhibition | Compound |
| --- | --- |
| Active | Sc1cccc2cccnc12 |

Target: T4, Protein deacetylase HDAC6 (Homo sapiens, UniProt Q9UBN7)
T4 sequence (Q9UBN7 whole entry): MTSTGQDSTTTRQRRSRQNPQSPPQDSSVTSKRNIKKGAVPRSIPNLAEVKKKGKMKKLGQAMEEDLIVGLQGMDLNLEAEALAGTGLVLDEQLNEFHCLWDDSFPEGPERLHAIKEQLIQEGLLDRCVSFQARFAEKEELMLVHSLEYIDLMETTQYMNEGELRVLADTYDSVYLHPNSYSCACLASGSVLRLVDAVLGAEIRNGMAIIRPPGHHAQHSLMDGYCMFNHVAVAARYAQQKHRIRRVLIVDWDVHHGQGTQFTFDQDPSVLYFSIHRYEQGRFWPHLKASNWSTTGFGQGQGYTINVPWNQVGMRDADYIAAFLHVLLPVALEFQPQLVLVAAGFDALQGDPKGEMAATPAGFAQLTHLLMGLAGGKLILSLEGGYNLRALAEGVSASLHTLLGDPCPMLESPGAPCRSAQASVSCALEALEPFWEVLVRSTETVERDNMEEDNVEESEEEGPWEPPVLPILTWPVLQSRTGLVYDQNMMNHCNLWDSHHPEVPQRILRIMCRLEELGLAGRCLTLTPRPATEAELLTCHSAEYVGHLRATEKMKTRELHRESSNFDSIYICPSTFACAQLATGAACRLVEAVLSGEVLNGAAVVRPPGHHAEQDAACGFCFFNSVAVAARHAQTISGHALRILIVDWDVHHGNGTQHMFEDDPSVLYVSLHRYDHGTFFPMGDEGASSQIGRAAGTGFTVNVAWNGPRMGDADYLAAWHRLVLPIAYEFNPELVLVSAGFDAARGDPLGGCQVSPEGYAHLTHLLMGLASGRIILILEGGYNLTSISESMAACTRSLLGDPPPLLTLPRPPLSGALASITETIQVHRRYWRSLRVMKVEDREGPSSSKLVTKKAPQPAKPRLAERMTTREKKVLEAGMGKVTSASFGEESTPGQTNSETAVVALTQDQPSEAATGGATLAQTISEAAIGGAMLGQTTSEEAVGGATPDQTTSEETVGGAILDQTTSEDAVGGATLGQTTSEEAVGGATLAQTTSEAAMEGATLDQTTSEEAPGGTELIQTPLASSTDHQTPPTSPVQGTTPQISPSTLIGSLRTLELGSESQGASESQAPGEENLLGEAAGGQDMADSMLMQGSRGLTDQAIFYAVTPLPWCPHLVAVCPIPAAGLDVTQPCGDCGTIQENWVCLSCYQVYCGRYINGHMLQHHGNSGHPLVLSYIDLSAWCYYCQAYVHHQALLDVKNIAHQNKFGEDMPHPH
Test: Inhibition of full length recombinant human N-terminal GST-tagged HDAC6 expressed in baculovirus expression system using substrate 3 preincubated for 5 mins followed by substrate addition measured after 30 mins by fluorescence assay
Settings: not given

| pIC50 | Compound |
| --- | --- |
| < 3.70 | Cc1ccc(S)c2ncccc12 |
| < 3.70 | Cc1ccnc2c(S)cccc12 |
| < 3.70 | Cc1cnc2c(S)cccc2c1 |
| < 3.70 | Sc1cccc2cccnc12 |
| < 4.30 | Cc1cc(S)c2ncccc2c1 |

Target: Histone deacetylase 1 (Homo sapiens, UniProt Q13547)
Test: Inhibition of full length recombinant human C-terminal His/FLAG-tagged HDAC1 expressed in baculovirus expression system using substrate 3 preincubated for 5 mins followed by substrate addition measured after 30 mins by fluorescence assay
Settings: not given

Histone deacetylase 1, sequence (Q13547 whole entry): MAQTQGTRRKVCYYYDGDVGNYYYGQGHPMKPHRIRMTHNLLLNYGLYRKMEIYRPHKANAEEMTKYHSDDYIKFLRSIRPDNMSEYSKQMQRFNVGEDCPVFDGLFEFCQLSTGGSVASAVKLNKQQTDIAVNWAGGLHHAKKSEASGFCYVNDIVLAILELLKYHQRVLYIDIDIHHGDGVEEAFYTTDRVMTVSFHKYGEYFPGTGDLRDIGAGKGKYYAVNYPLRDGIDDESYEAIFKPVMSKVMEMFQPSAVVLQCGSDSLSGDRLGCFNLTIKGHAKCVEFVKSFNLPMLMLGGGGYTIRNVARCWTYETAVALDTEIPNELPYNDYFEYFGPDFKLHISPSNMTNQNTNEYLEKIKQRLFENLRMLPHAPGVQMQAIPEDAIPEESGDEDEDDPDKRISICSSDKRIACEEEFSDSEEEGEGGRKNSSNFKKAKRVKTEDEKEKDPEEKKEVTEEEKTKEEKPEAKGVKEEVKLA

| pIC50 | Compound |
| --- | --- |
| < 3.70 | Cc1ccc(S)c2ncccc12 |
| < 3.70 | Cc1ccnc2c(S)cccc12 |
| < 4.30 | Cc1cnc2c(S)cccc2c1 |
| < 3.70 | Sc1cccc2cccnc12 |
| < 4.30 | Cc1cc(S)c2ncccc2c1 |

Target: COP9 signalosome complex subunit 5 (Homo sapiens, UniProt Q92905)
Test: Inhibition of CSN5 (unknown origin) using SCFskp2-Nedd8OG as substrate after 1 hr by fluorescence polarization assay
Settings: not given

COP9 signalosome complex subunit 5, sequence (Q92905 whole entry, one chain of several): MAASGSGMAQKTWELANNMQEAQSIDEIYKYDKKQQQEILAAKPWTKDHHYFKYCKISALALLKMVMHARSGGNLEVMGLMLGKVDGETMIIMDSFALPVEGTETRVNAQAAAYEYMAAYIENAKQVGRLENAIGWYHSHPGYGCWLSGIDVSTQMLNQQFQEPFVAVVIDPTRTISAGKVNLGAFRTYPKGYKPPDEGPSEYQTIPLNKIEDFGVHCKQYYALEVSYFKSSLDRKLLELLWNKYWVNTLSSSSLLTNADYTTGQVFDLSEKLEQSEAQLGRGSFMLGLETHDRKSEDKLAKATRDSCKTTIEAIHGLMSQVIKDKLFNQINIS

| Compound | pIC50 |
| --- | --- |
| Cc1ccc(S)c2ncccc12 | 5.54 |
| Cc1cnc2c(S)cccc2c1 | 5.15 |
| Sc1cccc2cccnc12 | 4.99 |

Second part, the compound after the results:

| pIC50 | Compound |
| --- | --- |
| 4.60 | Cc1ccnc2c(S)cccc12 |
| 4.70 | O=C(Nc1nccs1)c1cnc2c(SSc3cccc4cc(C(=O)Nc5nccs5)cnc34)cccc2c1 |

System: A549
Test: Antiproliferative activity against human A549 cells after 72 hrs by Cell Titer-Glo assay
Type: functional, cell-based
Settings: A549, 72 h

| pIC50 | Compound |
| --- | --- |
| 5.42 | O=C(NCCc1nccs1)c1cnc2c(SSc3cccc4cc(C(=O)NCCc5nccs5)cnc34)cccc2c1 |
| 5.24 | O=C(Nc1nccs1)c1cnc2c(SSc3cccc4cc(C(=O)Nc5nccs5)cnc34)cccc2c1 |
| 7.04 | CC(C)C[C@H](NC(=O)[C@H](Cc1ccccc1)NC(=O)c1cnccn1)B(O)O [BORTEZOMIB] |
